Patent US7034035B2, “Fungicidal mono-, bi-, and tri-cycloheteroalkyl amides and their compositions, methods of use and preparation” (priority 1999, dated 2006)
Where two headings read alike, the source gives them in different places.

How the values were obtained:
[1] = tested on: Magnaporthe grisea (Pyricularia oryzae—PYRIOR); experiment: microbe, parasite or virus in culture; assay type: cell-based
[2] = tested on: Puccinia recondita—PUCCRT; experiment: Brown Rust of Wheat, in vivo whole plant, 24 Hour Protectant; conditions: inoculated after 24 hours; for pest or weed control at 100 ppm: Puccinia, read-out: PUCCRT in vivo 1 Day Protectant
[3] = tested on: Stagonospora nodorum (Leptosphaeria nodorum—LEPTNO); experiment: Inhibition of in vitro fungal growth, LEPTNO; assay type: cell-based; set-up: inhibition of growth: dose or concentration left out as unconfirmed
[4] = tested on: Rhizoctonia solani (RHIZSO); experiment: microbe, parasite or virus in culture; assay type: cell-based
[5] = tested on: Phytophthora infestans (PHYTIN); experiment: microbe, parasite or virus in culture; assay type: cell-based
[6] = tested on: Leptosphaeria nodorum—LEPTNO; experiment: Glume Blotch of Wheat, in vivo whole plant, 24 Hour Protectant; conditions: inoculated after 24 hours; for pest or weed control at 100 ppm: Leptosphaeria, 24 h, read-out: LEPTNO in vivo 1 Day Protectant
Ustilago maydis (USTIMA) = experiment: microbe, parasite or virus in culture; assay type: cell-based
[7] = tested on: Mycosphaerella graminicola (Septoria tritici—SEPTTR); experiment: Inhibition of in vitro fungal growth, SEPTTR; assay type: cell-based; set-up: inhibition of growth: dose or concentration left out as unconfirmed
Septoria tritici—SEPTTR = experiment: Leaf Blotch of Wheat, in vivo whole plant, 24 Hour Protectant; conditions: for pest or weed control at 100 ppm: Zymoseptoria tritici, read-out: SEPTTR in vivo 1 Day Protectant
[8] = tested on: Phytophthora infestans—PHYTIN; experiment: whole plant or invertebrate; assay type: in vivo; conditions: for PHYTIN in vivo 1 Day Protectant: inoculated after 24 hours; for pest or weed control at 100 ppm: Phytophthora, in Solanum lycopersicum, 24 h, read-out: PHYTIN in vivo 1 Day Protectant
Erysiphe graminis—ERYSGT = experiment: Powdery Mildew of Wheat, in vivo whole plant, 24 Hour Protectant; conditions: for ERYSGT in vivo 1 Day Protectant: inoculated after 24 hours; for pest or weed control at 100 ppm: Erysiphe, in Triticum aestivum, 24 h, read-out: ERYSGT in vivo 1 Day Protectant
[9] = wheat (cultivar Yuma), sprayed at 100 ppm, control of fungal infection vs untreated plants
[10] = wheat (cultivar Yuma), sprayed at 100 ppm, inoculated after 24 hours, control of fungal infection vs untreated plants
[11] = wheat (cultivar Monon), sprayed at 100 ppm, control of fungal infection vs untreated plants
[12] = wheat plants sprayed at 100 ppm, inoculated after 24 hours, control vs untreated plants
[13] = wheat plants sprayed at 100 ppm, control vs untreated plants
[14] = tomato plants sprayed at 100 ppm, control vs untreated plants

COC(=O)C(Cc1ccc(OCc2ccccc2)cc1)NC(=O)c1nccc(OC)c1O (single isomer, unassigned) [Compound 338]
inhibition of growth at 25 µg/mL ([1]; Pyricularia oryzae, read-out: PYRIOR in vitro Growth Inhibition): < 80%
pest or weed control at 100 ppm [2, 9]: 75 to 100%
inhibition of growth ([3]; Leptosphaeria, in vitro fungal growth): < 80%
inhibition of growth at 25 µg/mL ([4]; Rhizoctonia solani, read-out: RHIZSO in vitro Growth Inhibition): < 80%
inhibition of growth at 25 µg/mL ([5]; Phytophthora infestans, read-out: PHYTIN in vitro Growth Inhibition): < 80%
pest or weed control at 100 ppm [6, 9]: 75 to 100%
inhibition of growth at 25 µg/mL (Ustilago maydis (USTIMA); Mycosarcoma maydis, read-out: USTIMA in vitro Growth Inhibition): > 80%
inhibition of growth ([7]; Zymoseptoria tritici, in vitro fungal growth): < 80%

O=C(N[C@H]1CC2CC1[C@@H]1CCC[C@H]21)c1ncccc1O (some centres unmarked) [Compound 206]
PYRIOR in vitro Growth Inhibition ([1]; in vitro fungal growth): + (at least 80% growth inhibition)
SEPTTR in vivo 1 Day Protectant (Septoria tritici—SEPTTR; [10]): − (<25% control of fungal infection)
PUCCRT in vivo 1 Day Protectant [2, 9]: − (<25% control of fungal infection)
LEPTNO in vitro Growth Inhibition [3]: + (key: +: at least 80% growth inhibition; −: less than 80% growth inhibition)
PHYTIN in vivo 1 Day Protectant ([8]; tomato (cultivar Rutgers), sprayed at 100 ppm, control of fungal infection vs untreated plants): − (<25% control of fungal infection)
RHIZSO in vitro Growth Inhibition [4]: + (key: +: at least 80% growth inhibition; −: less than 80% growth inhibition)
PHYTIN in vitro Growth Inhibition ([5]; in vitro fungal growth): − (less than 80% growth inhibition)
LEPTNO in vivo 1 Day Protectant [6, 9]: − (<25% control of fungal infection)
ERYSGT in vivo 1 Day Protectant (Erysiphe graminis—ERYSGT; [11]): − (<25% control of fungal infection)
USTIMA in vitro Growth Inhibition (Ustilago maydis (USTIMA)): − (key: +: at least 80% growth inhibition; −: less than 80% growth inhibition)
SEPTTR in vitro Growth Inhibition [7]: + (key: +: at least 80% growth inhibition; −: less than 80% growth inhibition)

COc1ccnc(C(=O)NC2CCN(Cc3ccccc3)CC2)c1O.O=C(O)/C=C\C(=O)O [Compound 305]
SEPTTR in vivo 1 Day Protectant (Septoria tritici—SEPTTR; [10]): − (<25% control of fungal infection)
PUCCRT in vivo 1 Day Protectant [2, 9]: − (<25% control of fungal infection)
LEPTNO in vitro Growth Inhibition [3]: − (key: +: at least 80% growth inhibition; −: less than 80% growth inhibition)
pest or weed control at 100 ppm [8]: 75 to 100%
RHIZSO in vitro Growth Inhibition [4]: − (key: +: at least 80% growth inhibition; −: less than 80% growth inhibition)
LEPTNO in vivo 1 Day Protectant [6, 9]: − (<25% control of fungal infection)
ERYSGT in vivo 1 Day Protectant (Erysiphe graminis—ERYSGT; [11]): − (<25% control of fungal infection)
USTIMA in vitro Growth Inhibition (Ustilago maydis (USTIMA)): − (key: +: at least 80% growth inhibition; −: less than 80% growth inhibition)
SEPTTR in vitro Growth Inhibition [7]: − (key: +: at least 80% growth inhibition; −: less than 80% growth inhibition)

COc1ccnc(C(=O)NC2CCN(Cc3cccc(C(F)(F)F)c3)CC2)c1O.O=C(O)/C=C\C(=O)O.O=C(O)/C=C\C(=O)O [Compound 307]
PUCCRT in vivo 1 Day Protectant [2, 9]: − (<25% control of fungal infection)
LEPTNO in vitro Growth Inhibition [3]: − (key: +: at least 80% growth inhibition; −: less than 80% growth inhibition)
RHIZSO in vitro Growth Inhibition [4]: − (key: +: at least 80% growth inhibition; −: less than 80% growth inhibition)
LEPTNO in vivo 1 Day Protectant [6, 9]: − (<25% control of fungal infection)
ERYSGT in vivo 1 Day Protectant (Erysiphe graminis—ERYSGT; [11]): + (25-74% control of fungal infection)
USTIMA in vitro Growth Inhibition (Ustilago maydis (USTIMA)): − (key: +: at least 80% growth inhibition; −: less than 80% growth inhibition)
SEPTTR in vitro Growth Inhibition [7]: − (key: +: at least 80% growth inhibition; −: less than 80% growth inhibition)

Br.COc1ccnc(C(=O)NC2C[C@@H](Cc3ccccc3)O[C@@H](C)C2)c1O (some centres unmarked) [Compound 311]
pest or weed control at 100 ppm (Septoria tritici—SEPTTR; 24 h): 75 to 100%
PUCCRT in vivo 1 Day Protectant [2, 9]: + (25-74% control of fungal infection)
LEPTNO in vitro Growth Inhibition [3]: − (key: +: at least 80% growth inhibition; −: less than 80% growth inhibition)
RHIZSO in vitro Growth Inhibition [4]: − (key: +: at least 80% growth inhibition; −: less than 80% growth inhibition)
LEPTNO in vivo 1 Day Protectant [6, 9]: + (25-74% control of fungal infection)
ERYSGT in vivo 1 Day Protectant (Erysiphe graminis—ERYSGT; [11]): − (<25% control of fungal infection)
USTIMA in vitro Growth Inhibition (Ustilago maydis (USTIMA)): − (key: +: at least 80% growth inhibition; −: less than 80% growth inhibition)
SEPTTR in vitro Growth Inhibition [7]: − (key: +: at least 80% growth inhibition; −: less than 80% growth inhibition)

COc1ccnc(C(=O)N[C@@H]2C[C@@H](O[Si](C)(C)C(C)(C)C)O[C@@H](C)[C@@H]2OC)c1O [Compound 326]
pest or weed control at 100 ppm (Septoria tritici—SEPTTR; [10]): 75 to 100%
LEPTNO in vitro Growth Inhibition [3]: − (key: +: at least 80% growth inhibition; −: less than 80% growth inhibition)
RHIZSO in vitro Growth Inhibition [4]: − (key: +: at least 80% growth inhibition; −: less than 80% growth inhibition)
USTIMA in vitro Growth Inhibition (Ustilago maydis (USTIMA)): − (key: +: at least 80% growth inhibition; −: less than 80% growth inhibition)
SEPTTR in vitro Growth Inhibition [7]: − (key: +: at least 80% growth inhibition; −: less than 80% growth inhibition)

COc1ccnc(C(=O)N[C@@H]2C[C@@H](O[Si](C)(C)C(C)(C)C)O[C@@H](C)[C@@H]2OCc2ccccc2)c1O [Compound 327]
pest or weed control at 100 ppm (Septoria tritici—SEPTTR; [10]): 75 to 100%
LEPTNO in vitro Growth Inhibition [3]: − (key: +: at least 80% growth inhibition; −: less than 80% growth inhibition)
RHIZSO in vitro Growth Inhibition [4]: − (key: +: at least 80% growth inhibition; −: less than 80% growth inhibition)
USTIMA in vitro Growth Inhibition (Ustilago maydis (USTIMA)): − (key: +: at least 80% growth inhibition; −: less than 80% growth inhibition)
SEPTTR in vitro Growth Inhibition [7]: − (key: +: at least 80% growth inhibition; −: less than 80% growth inhibition)

COc1ccnc(C(=O)N[C@H]2C[C@@H](O[Si](C)(C)C(C)(C)C)O[C@@H](C)[C@@H]2OCc2ccccc2)c1O [Compound 328]
LEPTNO in vitro Growth Inhibition [3]: − (key: +: at least 80% growth inhibition; −: less than 80% growth inhibition)
RHIZSO in vitro Growth Inhibition [4]: − (key: +: at least 80% growth inhibition; −: less than 80% growth inhibition)
USTIMA in vitro Growth Inhibition (Ustilago maydis (USTIMA)): − (key: +: at least 80% growth inhibition; −: less than 80% growth inhibition)
SEPTTR in vitro Growth Inhibition [7]: − (key: +: at least 80% growth inhibition; −: less than 80% growth inhibition)

COC(=O)C(COC(=O)C(CO[Si](C)(C)C(C)(C)C)Cc1ccccc1)NC(=O)c1nccc(OC)c1O (centres unmarked) [Compound 350]
pest or weed control at 100 ppm (Septoria tritici—SEPTTR; [10]): < 25%
pest or weed control at 100 ppm [2, 9]: 75 to 100%
pest or weed control at 100 ppm [8]: < 25%
pest or weed control at 100 ppm [6, 9]: 75 to 100%
pest or weed control at 100 ppm (Erysiphe graminis—ERYSGT): < 25%

CCC(C)C(=O)O[C@H]1[C@H](C)OC(=O)[C@@H](NC(=O)c2nccc(OC)c2O)COC(=O)[C@@H]1Cc1ccccc1 (some centres unmarked) [Compound 389]
pest or weed control at 100 ppm (Septoria tritici—SEPTTR; [10]): 25 to 74%
pest or weed control at 100 ppm [2, 9]: 25 to 74%
pest or weed control at 100 ppm [8]: < 25%
pest or weed control at 100 ppm [6, 9]: 75 to 100%
pest or weed control at 100 ppm (Erysiphe graminis—ERYSGT): < 25%

COc1ccnc(C(=O)N[C@H]2COC(=O)[C@H](Cc3ccccc3)[C@@H](OC(=O)CC(C)C)[C@H](C)OC2=O)c1O [Compound 390]
pest or weed control at 100 ppm (Septoria tritici—SEPTTR; [10]): 25 to 74%
pest or weed control at 100 ppm [2, 9]: 25 to 74%
pest or weed control at 100 ppm [8]: < 25%
pest or weed control at 100 ppm [6, 9]: 75 to 100%
pest or weed control at 100 ppm (Erysiphe graminis—ERYSGT): < 25%

COc1ccnc(C(=O)NC2COC(=O)[C@H](Cc3ccccc3)[C@@H](OC(=O)C(C)C)[C@H](C)OC2=O)c1O (some centres unmarked) [Compound 475]
pest or weed control at 100 ppm (Septoria tritici—SEPTTR; [12]): 25 to 74%
pest or weed control at 100 ppm [2, 13]: 25 to 74%
pest or weed control at 100 ppm [8]: < 25%
pest or weed control at 100 ppm [6, 13]: 75 to 100%
pest or weed control at 100 ppm (Erysiphe graminis—ERYSGT): < 25%

O=C(Nc1cccc(Oc2cccc(C(F)(F)F)c2)c1)c1nc(Br)ccc1O [Compound 496]
SEPTTR in vivo 1 Day Protectant (Septoria tritici—SEPTTR; [12]): + (25-74% control of fungal infection)
PUCCRT in vivo 1 Day Protectant [2, 13]: + (25-74% control of fungal infection)
PHYTIN in vivo 1 Day Protectant [8, 14]: − (<25% control of fungal infection)
LEPTNO in vivo 1 Day Protectant [6, 13]: − (<25% control of fungal infection)
pest or weed control at 100 ppm (Erysiphe graminis—ERYSGT): < 25%

O=C(Nc1cccc(Oc2cccc(C(F)(F)F)c2)c1)c1nc(Br)ccc1O [Compound 497]
SEPTTR in vivo 1 Day Protectant (Septoria tritici—SEPTTR; [12]): + (25-74% control of fungal infection)
PUCCRT in vivo 1 Day Protectant [2, 13]: + (25-74% control of fungal infection)
PHYTIN in vivo 1 Day Protectant [8, 14]: − (<25% control of fungal infection)
LEPTNO in vivo 1 Day Protectant [6, 13]: + (25-74% control of fungal infection)
ERYSGT in vivo 1 Day Protectant (Erysiphe graminis—ERYSGT; [13]): − (<25% control of fungal infection)

CC(C)C(=O)O[C@H]1[C@H](C)OC(=O)[C@@H](NC(=O)c2nsnc2O)COC(=O)[C@@H]1Cc1ccccc1 [Compound 553]
pest or weed control at 100 ppm [8]: 75 to 100%
pest or weed control at 100 ppm [6, 13]: 75 to 100%
